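Growth conditions: 96-well plates. Treatment: test compound, 48 hours, 5 concentrations. Analysis: linear interpolation between bracketing concentrations; unreached endpoints set to highest concentration. The concentration for full growth arrest is given as TGI.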
Columns and labels:
Assay in all cases: NCI-60 cell line screen, 48 h
786-0 renal = system: 786-0 renal
A498 renal = system: A498 renal
A549 NSCLC = system: A549 NSCLC
ACHN renal = system: ACHN renal
BT-549 breast = system: BT-549 breast
CAKI-1 renal = system: CAKI-1 renal
CCRF-CEM leukemia = system: CCRF-CEM leukemia
COLO 205 colon = system: COLO 205 colon
DU-145 prostate = system: DU-145 prostate
EKVX NSCLC = system: EKVX NSCLC
HCC-2998 colon = system: HCC-2998 colon
HCT-116 colon = system: HCT-116 colon
HCT-15 colon = system: HCT-15 colon
HL-60(TB) leukemia = system: HL-60(TB) leukemia
HOP-62 NSCLC = system: HOP-62 NSCLC
HOP-92 NSCLC = system: HOP-92 NSCLC
HS 578T breast = system: HS 578T breast
HT29 colon = system: HT29 colon
IGROV1 ovarian = system: IGROV1 ovarian
K-562 leukemia = system: K-562 leukemia
KM12 colon = system: KM12 colon
LOX IMVI melanoma = system: LOX IMVI melanoma
M14 melanoma = system: M14 melanoma
MALME-3M melanoma = system: MALME-3M melanoma
MCF7 breast = system: MCF7 breast
MDA-MB-231 breast = system: MDA-MB-231 breast
MDA-MB-435 = system: MDA-MB-435
MDA-N = system: MDA-N
NCI-H226 lung = system: NCI-H226 lung
NCI-H23 lung = system: NCI-H23 lung
NCI-H460 lung = system: NCI-H460 lung
NCI-H522 lung = system: NCI-H522 lung
NCI/ADR-RES ovarian = system: NCI/ADR-RES ovarian
OVCAR-3 ovarian = system: OVCAR-3 ovarian
OVCAR-4 ovarian = system: OVCAR-4 ovarian
OVCAR-5 ovarian = system: OVCAR-5 ovarian
OVCAR-8 ovarian = system: OVCAR-8 ovarian
PC-3 prostate = system: PC-3 prostate
RPMI-8226 leukemia = system: RPMI-8226 leukemia
RXF 393 renal = system: RXF 393 renal
SF-268 CNS = system: SF-268 CNS
SF-295 CNS = system: SF-295 CNS
SF-539 CNS = system: SF-539 CNS
SK-MEL-2 melanoma = system: SK-MEL-2 melanoma
SK-MEL-28 melanoma = system: SK-MEL-28 melanoma
SK-MEL-5 melanoma = system: SK-MEL-5 melanoma
SK-OV-3 ovarian = system: SK-OV-3 ovarian
SN12C renal = system: SN12C renal
SNB-19 CNS = system: SNB-19 CNS
SNB-75 CNS = system: SNB-75 CNS
SR leukemia = system: SR leukemia
SW-620 colon = system: SW-620 colon
T-47D breast = system: T-47D breast
TK-10 renal = system: TK-10 renal
U251 CNS = system: U251 CNS
UACC-257 melanoma = system: UACC-257 melanoma
UACC-62 melanoma = system: UACC-62 melanoma
UO-31 renal = system: UO-31 renal
MOLT-4 leukemia = system: MOLT-4 leukemia

Measured: TGI

CCC(N)(C(=O)O)C(C)C (stereo not drawn)
> 100 µM: 786-0 renal | A498 renal | A549 NSCLC | ACHN renal | BT-549 breast | CAKI-1 renal | CCRF-CEM leukemia | COLO 205 colon | DU-145 prostate | EKVX NSCLC | HCC-2998 colon | HCT-116 colon | HCT-15 colon | HL-60(TB) leukemia | HOP-62 NSCLC | HOP-92 NSCLC | HS 578T breast | HT29 colon | IGROV1 ovarian | K-562 leukemia | KM12 colon | LOX IMVI melanoma | M14 melanoma | MALME-3M melanoma | MCF7 breast | MDA-MB-231 breast | MDA-MB-435 | MDA-N | NCI-H226 lung | NCI-H23 lung | NCI-H460 lung | NCI-H522 lung | NCI/ADR-RES ovarian | OVCAR-3 ovarian | OVCAR-4 ovarian | OVCAR-5 ovarian | OVCAR-8 ovarian | PC-3 prostate | RPMI-8226 leukemia | RXF 393 renal | SF-268 CNS | SF-295 CNS | SF-539 CNS | SK-MEL-2 melanoma | SK-MEL-28 melanoma | SK-MEL-5 melanoma | SK-OV-3 ovarian | SN12C renal | SNB-19 CNS | SNB-75 CNS | SR leukemia | SW-620 colon | T-47D breast | TK-10 renal | U251 CNS | UACC-257 melanoma | UACC-62 melanoma | UO-31 renal

Cc1[nH]c(=O)nc2nc3ccc(Cl)cc3c(N(CCO)CCO)c12
48 µM: NCI-H522 lung
> 100 µM: 786-0 renal | A498 renal | A549 NSCLC | ACHN renal | BT-549 breast | CAKI-1 renal | CCRF-CEM leukemia | COLO 205 colon | DU-145 prostate | EKVX NSCLC | HCC-2998 colon | HCT-116 colon | HCT-15 colon | HL-60(TB) leukemia | HOP-62 NSCLC | HOP-92 NSCLC | HS 578T breast | HT29 colon | IGROV1 ovarian | K-562 leukemia | KM12 colon | LOX IMVI melanoma | M14 melanoma | MALME-3M melanoma | MCF7 breast | MDA-MB-231 breast | MDA-MB-435 | MDA-N | MOLT-4 leukemia | NCI-H226 lung | NCI-H23 lung | NCI-H460 lung | NCI/ADR-RES ovarian | OVCAR-3 ovarian | OVCAR-4 ovarian | OVCAR-5 ovarian | OVCAR-8 ovarian | PC-3 prostate | RPMI-8226 leukemia | RXF 393 renal | SF-268 CNS | SF-295 CNS | SF-539 CNS | SK-MEL-2 melanoma | SK-MEL-28 melanoma | SK-MEL-5 melanoma | SK-OV-3 ovarian | SN12C renal | SNB-19 CNS | SR leukemia | SW-620 colon | T-47D breast | TK-10 renal | U251 CNS | UACC-257 melanoma | UACC-62 melanoma | UO-31 renal

COc1ccc(-c2cc(=O)c3c(O)cc(O)cc3o2)cc1OC
45.2 µM: A498 renal
33.5 µM: SR leukemia
> 100 µM: 786-0 renal | A549 NSCLC | ACHN renal | BT-549 breast | CCRF-CEM leukemia | COLO 205 colon | DU-145 prostate | EKVX NSCLC | HCC-2998 colon | HCT-116 colon | HCT-15 colon | HL-60(TB) leukemia | HOP-62 NSCLC | HS 578T breast | HT29 colon | IGROV1 ovarian | K-562 leukemia | KM12 colon | LOX IMVI melanoma | M14 melanoma | MALME-3M melanoma | MCF7 breast | MDA-MB-231 breast | MDA-MB-435 | MDA-N | MOLT-4 leukemia | NCI-H226 lung | NCI-H23 lung | NCI-H460 lung | NCI/ADR-RES ovarian | OVCAR-3 ovarian | OVCAR-4 ovarian | OVCAR-5 ovarian | PC-3 prostate | RPMI-8226 leukemia | RXF 393 renal | SF-268 CNS | SF-295 CNS | SF-539 CNS | SK-MEL-2 melanoma | SK-MEL-28 melanoma | SK-MEL-5 melanoma | SK-OV-3 ovarian | SN12C renal | SNB-19 CNS | SW-620 colon | T-47D breast | TK-10 renal | U251 CNS | UACC-257 melanoma | UACC-62 melanoma | UO-31 renal
16.4 µM: HOP-92 NSCLC
37.1 µM: SNB-75 CNS
59.1 µM: NCI-H522 lung

Source: PubChem BioAssay (NCI)
